Measurements taken from patent US10220038B2, “Pharmaceutical combinations” (Novartis AG, priority 2013, dated 2019).

Assays:
[1] = Tolerability in HSAX2655-tumor bearing mice (body weight, survival); type: in vivo; conditions: p.o., q24h, Compound A 30 mg/kg, Compound C 75 mg/kg, day 14 post 1st treatment; for Host Survival: survivors/group
Description: Compounds A and C were formulated fresh for each administration. The compounds were dissolved in 0.5% methylcellulose. For efficacy experiments, mice were randomized into groups of n=5 and treated for 14 days. Compound A was injected at 30 mg/kg and Compound C at 75, 150 and 250 mg/kg. Mice were treated daily (q24 h) p.o. at 10 ml/kg for both drugs. On the last day of experiment, mice from each treatment group were sacrificed 4 and 24 h post last treatment and tumors were snap-frozen.
Efficacy and tolerability were assessed by determining tumor volume and body weight, respectively. Tumor volume (TVol), determined from caliper measurements (using the formula I*w*h*π/6) were measured three times per week. Tumor response was quantified by the change in tumor volume (endpoint minus starting value in mm^3) as the T/C i.e.
[formula] The body-weight (BW) of the mice was measured three times per week allowing calculation at any particular time-point relative to the day of initiation of treatment (day 0) of both the percentage change in BW (Δ % BW).
Differences between the means of TVol and BW were assessed on the endpoint ΔTvol or % ΔBW using a 1-way ANOVA with Dunnett or Tukey's tests post-hoc. Linear correlations were explored by determining Pearson correlation coefficient, with P<0.05 considered as significant.

[2] = tested on: HSAX2655 tumor; experiment: Well differentiated liposarcoma (WDLPS) patient-derived in vivo model HSAX2655, efficacy; set-up: species or system Harlan nude mice; conditions: p.o., q24h, Compound A 30 mg/kg, Compound C 75 mg/kg; for Tumor T/C: day 14 post 1st treatment; for Tumor ΔTvol: day 37 post transplantation (day 14 post 1st treatment)
Description: PDX tumors were induced by transplanting subcutaneously frozen pieces of tumors in the right flank of Harlan nude mice. After several weeks of growth, donor animals were sacrificed and tumors were taken out and cut in 3×3×3 mm^3 pieces. Each tumor piece was transplanted subcutaneously in the right flank of naive Harlan nude mice. Efficacy experiment could start 30 days post transplantation. Compounds A and C were formulated fresh for each administration. The compounds were dissolved in 0.5% methylcellulose. For efficacy experiments, mice were randomized into groups of n=5 and treated for 14 days. Compound A was injected at 30 mg/kg and Compound C at 75, 150 and 250 mg/kg. Mice were treated daily (q24 h) p.o. at 10 ml/kg for both drugs. On the last day of experiment, mice from each treatment group were sacrificed 4 and 24 h post last treatment and tumors were snap-frozen. Efficacy and tolerability were assessed by determining tumor volume and body weight, respectively. Tumor volume (TVol), determined from caliper measurements (using the formula I*w*h*π/6) were measured three times per week. Tumor response was quantified by the change in tumor volume (endpoint minus starting value in mm^3) as the T/C i.e. [formula] In the case of tumor regression, the tumor response was quantified by the percentage of regression of the starting TVol, ie Differences between the means of TVol and BW were assessed on the endpoint ΔTvol or % ΔBW using a 1-way ANOVA with Dunnett or Tukey's tests post-hoc. Linear correlations were explored by determining Pearson correlation coefficient, with P<0.05 considered as significant. A non-statistical analysis of the combination effects of therapy on the efficacy were calculated using a modification of the method described by Clark (1997) to obtain a Combination Index (CI). Thus, multiplication of the AUC-T/Cs for single agents A and B was compared to the AUC-T/C obtained for the actual combination A+B.

[3] = tested on: liposarcoma cell line 449b; experiment: Microscopy (nuclei count) proliferation assay, 72 hrs, 449b cells; type: cell-based; conditions: single agent
Description: (§1) Compounds B and C were dissolved in 100% DMSO (Sigma, Catalog number D2650) at concentrations of 10 mM and stored at −20° C. until use. Compounds were arrayed in 300 uL deep well 384-well plates (BrandTec, Catalog number 701355) at 8× the highest final concentration. Row and column dilutions were prepared separately using a Bravo liquid handler (Agilent Technologies). Dilutions were made at 1:2 giving a total of 10 dilutions for each compound. Once completed the row and column dilution plates were combined 1:1 giving a final stamping plate at 4× concentration.
(§2) The cell lines 449b, 778 and LP6 were cultured in RPMI1640 (ATCC, Catalog number 30-2110) supplemented with 10% FBS (HyClone, Catalog number SH30071.03) at 37° C. and 5% CO2. In all cases cells were thawed from frozen stocks, expanded through ≥1 passage using 1:6 dilutions. Cells were counted and assessed for viability using a ViCell counter (Beckman-Coulter). The identity of all the cell lines was confirmed by SNP profiling. […]
(§3) An automated image analysis pipeline was established using custom-made scripts in the open-source, statistical programming language R, and functions of the BioConductor package EBImage. The goal was to quantify the number of viable nuclei (cells) per well as an approximation for cell viability. […]

[4] = tested on: liposarcoma cell line LP6; experiment: Microscopy (nuclei count) proliferation assay, 72 hrs, LP6 cells; type: cell-based; conditions: single agent
Description: as §1, §2, §3

[5] = tested on: liposarcoma cell line 778; experiment: Microscopy (nuclei count) proliferation assay, 72 hrs, 778 cells; type: cell-based; conditions: single agent
Description: as §1
The cell lines 449b, 778 and LP6 were cultured in RPMI1640 (ATCC, Catalog number 30-2110) supplemented with 10% FBS (HyClone, Catalog number SH30071.03) at 37° C. and 5% CO2. In all cases cells were thawed from frozen stocks, expanded through ≥1 passage using 1:6 dilutions. Cells were counted and assessed for viability using a ViCell counter (Beckman-Coulter). The identity of all the cell lines was confirmed by SNP profiling.
All cells were seeded at a concentration of […] cells/mL in 30 uL RPMI1640 media using a BioTek MicroFill (BioTek). Four 384-well plates were prepared per cell line (Greiner bio-one, catalog number 781091). The next day, compound was added using Bravo liquid handler. […] To other plates, compound was added and plates were incubated for 72 hrs. Following incubation period, 10 ul of the media was removed using the ELx405 Microplate Washer (BioTek/Thermo Scientific). […]
as §3

| IC50 [5] [nM] | Compound | Host ΔBW [1] [%] | Host Survival [1] | Tumor T/C [2] [%] | Tumor ΔTvol [2] | IC50 [3] [nM] | IC50 [4] [nM] | IC50 ([5]; 72 h) [nM] |
| --- | --- | --- | --- | --- | --- | --- | --- | --- |
|  | COc1cc2c(cc1OC(C)C)[C@H](c1ccc(Cl)cc1)N(c1ccc(N(C)C[C@H]3CC[C@H](N4CCN(C)C(=O)C4)CC3)cc1)C(=O)C2 [Compound A, (S)-1-(4-Chloro-phenyl)-7-isopropoxy-6-methoxy-2-(4-{methyl-[4-(4-methyl-3-oxo-piperazin-1-yl)-trans-cyclohexylmethyl]-amino}-phenyl)-1,4-dihydro-2H-isoquinolin-3-one] | 6.9 ± 2.0 | 5/5 | 6 | 24 ± 12 ^a mm^3 |  |  |  |
| 64.6 | COc1ncc(-c2nc3c(n2C(C)C)[C@H](c2ccc(Cl)cc2)N(c2cc(Cl)cn(C)c2=O)C3=O)c(OC)n1 [Compound B, (S)-5-(5-Chloro-1-methyl-2-oxo-1,2-dihydro-pyridin-3-yl)-6-(4-chloro-phenyl)-2-(2,4-dimethoxy-pyrimidin-5-yl)-1-isopropyl-5,6-dihydro-1H-pyrrolo[3,4-d]imidazol-4-one] |  |  |  |  | 27.7 | 86 | 46.6 |
|  | CN(C)C(=O)c1cc2cnc(Nc3ccc(N4CCNCC4)cn3)nc2n1C1CCCC1 [Compound C, 7-Cyclopentyl-2-(5-piperazin-1-yl-pyridin-2-ylamino)-7H-pyrrolo[2,3-d]pyrimidine-6-carboxylic acid dimethylamide] | 4.7 ± 2.3 | 5/5 | 18 | 66 ± 18 ^a mm^3 | 130 | 475 | 59.3 |
